Measured values from PubChem BioAssay (NCI).
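Results reflect a 48-hour exposure of cells in 96-well plates to compound at five concentrations. Here, GI50 denotes the concentration required for 50% inhibition of growth. At the TGI there is no net growth.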

Legend:
Assay in all cases: inhibition of tumour cell growth, NCI panel, 48 h
COLO 205 colon = test system: COLO 205 colon
HT29 colon = test system: HT29 colon
MOLT-4 leukemia = test system: MOLT-4 leukemia
NCI-H23 lung = test system: NCI-H23 lung
NCI-H460 lung = test system: NCI-H460 lung
OVCAR-4 ovarian = test system: OVCAR-4 ovarian
OVCAR-5 ovarian = test system: OVCAR-5 ovarian
SK-OV-3 ovarian = test system: SK-OV-3 ovarian
UACC-62 melanoma = test system: UACC-62 melanoma
UO-31 renal = test system: UO-31 renal

SMILES | TGI (COLO 205 colon) | TGI (HT29 colon) | TGI (MOLT-4 leukemia) | TGI (NCI-H23 lung) | TGI (NCI-H460 lung) | TGI (OVCAR-4 ovarian) | TGI (OVCAR-5 ovarian) | TGI (SK-OV-3 ovarian) | TGI (UACC-62 melanoma) | TGI (UO-31 renal) | GI50 (COLO 205 colon) | GI50 (MOLT-4 leukemia) | GI50 (NCI-H460 lung) | GI50 (OVCAR-4 ovarian) | GI50 (OVCAR-5 ovarian) | GI50 (SK-OV-3 ovarian) | GI50 (UACC-62 melanoma) | GI50 (UO-31 renal) | GI50 (HT29 colon) | GI50 (NCI-H23 lung)
O=c1c2ccccc2[nH]n1Cc1ccccc1 | > 100 µM | > 100 µM | > 100 µM | > 100 µM | > 100 µM | > 100 µM | > 100 µM | > 100 µM | > 100 µM | > 100 µM |  |  |  |  |  |  |  |  |  | 
NCCSc1cc(O)c2c(c1N)C(=O)c1ccccc1C2=O |  | > 100 µM | 63.8 µM | > 100 µM | > 100 µM | > 100 µM | > 100 µM | > 100 µM | > 100 µM | > 100 µM |  |  |  |  |  |  |  |  |  | 
CC1(C)[C@@H]2CC[C@]1(C)[C@H](OC(=O)/C=C/c1ccccc1)C2 | 31 µM | 33.7 µM |  | 50.8 µM | > 100 µM | 55.1 µM | 39.1 µM | 84.2 µM | 57.5 µM | 34 µM |  |  |  |  |  |  |  |  |  | 
COc1cccc(/C=N/NC(=O)CSCC(=O)N/N=C/c2cccc(OC)c2OC)c1OC | > 100 µM | > 100 µM | > 100 µM | > 100 µM | > 100 µM | > 100 µM | > 100 µM | > 100 µM | > 100 µM | > 100 µM |  |  |  |  |  |  |  |  |  | 
O=C1C=CC2OC(c3ccccc3)C(O)C2O1 (stereo unspecified) | 11 µM | 35.2 µM | 4.41 µM | 12.6 µM | 16.2 µM | 17.9 µM | 21.5 µM | 39.5 µM | 20.9 µM | 21.1 µM |  |  |  |  |  |  |  |  |  | 
COc1cc(OC)cc(-c2ccc(-c3ccc(C(=N)N)cn3)o2)c1 | 3.27 µM |  | 3.59 µM |  | 3.16 µM | 3.46 µM | 3.2 µM | 3.34 µM | 3.29 µM | 3.06 µM | 1.62 µM | 1.74 µM | 1.63 µM | 1.74 µM | 1.74 µM | 1.91 µM | 1.77 µM | 1.59 µM |  | 
COc1cc(C(=O)O[C@H](C(=O)NCCCNC(=O)[C@@H](OC(=O)c2cc(OC)cc3c(C)cccc23)[C@]2(C)CO2)[C@]2(C)CO2)c2cccc(C)c2c1 | 0.511 µM |  | < 0.01 µM | 0.0224 µM | 0.902 µM | 0.231 µM | 1.45 µM | 1.98 µM | 2.14 µM | > 100 µM | 0.0593 µM | < 0.01 µM | < 0.019 µM | < 0.01 µM | 0.168 µM | 0.501 µM | 0.962 µM | 0.705 µM | < 0.0121 µM | < 0.01 µM
COc1ccc2c3c(Nc4cccc(/C(C)=N\O)c4)[nH]c4ccccc4c-3c(N=O)c2c1 | 57.1 µM | > 100 µM | 62.2 µM | 27.1 µM | > 100 µM | > 100 µM | 96.9 µM |  | > 100 µM | > 100 µM | 21.3 µM | 7 µM | 33.6 µM | 29 µM | 26.5 µM |  | 43.9 µM | 52.9 µM | 18.3 µM | 0.752 µM
COc1cc(C2c3cc4c(cc3[C@@H](Nc3cccc(CO)c3)C3COC(=O)[C@H]23)OCO4)cc(OC)c1O (stereo partly specified) | 3.72 µM | 5.15 µM | 0.185 µM | 2.77 µM | 1.75 µM | 30.4 µM | 11.5 µM | 9.04 µM | 2.76 µM | 10.4 µM |  |  |  |  |  |  |  |  |  | 
C=CCN1/C(=C(\C#N)c2nc3ccccc3[nH]2)Sc2c1nc[nH]c2=O | > 100 µM | > 100 µM | > 100 µM | > 100 µM | > 100 µM | > 100 µM | > 100 µM | > 100 µM | > 100 µM | > 100 µM |  |  |  |  |  |  |  |  |  | 
Cc1[nH]c(=O)[nH]c(=O)c1/C=C/C(=O)O (tested in a mixture with another compound) | > 625 µM | > 625 µM | > 625 µM | > 625 µM | > 625 µM | > 625 µM | > 625 µM | > 625 µM | > 625 µM | > 625 µM |  |  |  |  |  |  |  |  |  | 
CC(CC(N)C(=O)O)C(=O)O (stereo unspecified) |  | > 100 µM | > 100 µM | > 100 µM | > 100 µM | > 100 µM | > 100 µM |  | > 100 µM | > 100 µM |  |  |  |  |  |  |  |  |  | 
CCC(C)C(N)C(=O)NC(CC(N)=O)C(=O)NC(CC(C)C)C(=O)NC(CCCCN)C(=O)NC(C)C(=O)NC(CC(C)C)C(=O)NC(C)C(=O)NC(C)C(=O)NC(CC(C)C)C(=O)NC(C)C(=O)NC(CCCCN)C(=O)NC(CCCCN)C(=O)NC(C(=O)NC(CC(C)C)C(N)=O)C(C)CC (stereo unspecified) | 32.1 µM | 35.9 µM | 38.5 µM | 29 µM | 28.9 µM | 31.9 µM | 28 µM | 33.7 µM | 13.8 µM | 32.1 µM |  |  |  |  |  |  |  |  |  | 
COc1nc2cccc(C(O)c3ccccc3)c2nc1-c1ccccc1 (stereo unspecified) | 16.3 µM | 72.4 µM | 34.7 µM | 35.5 µM | 24.8 µM | > 100 µM | 54.8 µM |  | 23.9 µM | 68.7 µM |  |  |  |  |  |  |  |  |  | 
OCC1COc2cc(Cl)c(Cl)cc2O1 (stereo unspecified) | > 10 µM | > 10 µM | > 10 µM | > 10 µM | > 10 µM | > 10 µM | > 10 µM | > 10 µM | > 10 µM | > 10 µM |  |  |  |  |  |  |  |  |  | 
COc1cc2c3cc1Oc1c(O)c(OC)cc4c1C(Cc1ccc(O)c(c1)Oc1ccc(cc1)CC3N(C)CC2)N(C)CC4 (stereo unspecified) | 43.4 µM | 18.9 µM | 30.8 µM | 39 µM | 28.4 µM | 28.2 µM | 38.4 µM | 40.1 µM | 42.9 µM | 29.3 µM |  |  |  |  |  |  |  |  |  | 
N#CC(N=Nc1ccccc1C(=O)O)C(N)=O (stereo unspecified) |  | > 100 µM | > 100 µM | > 100 µM | > 100 µM | > 100 µM | > 100 µM |  | > 100 µM | > 100 µM |  |  |  |  |  |  |  |  |  | 
Cc1cccc(Br)[n+]1[O-] | > 100 µM | > 100 µM | > 100 µM | > 100 µM | > 100 µM | > 100 µM | > 100 µM | > 100 µM | > 100 µM | > 100 µM |  |  |  |  |  |  |  |  |  | 
Cc1c[n+]2c3ccccc3c3ccccc3c2s1 | 26.1 µM | > 100 µM | 13.4 µM | 3.9 µM | 25.5 µM | 32.7 µM | 12.8 µM | > 71.4 µM | > 47.1 µM | 14.5 µM |  |  |  |  |  |  |  |  |  | 
